Laboratory results reported in patent US8546383B2, “Chiral fused [1,2]imidazo[4,5-c] ring compounds” (3M Innovative Properties Company, priority 2004, dated 2013).

melting point | SMILES
240.4 to 243.4 °C | Nc1nc2ccccc2c2c1nc1n2[C@@H](C2CCOCC2)COC1 [Example 43, (11S)-11-Tetrahydro-2H-pyran-4-yl-10,11-dihydro-8H-[1,4]oxazino[4′,3′:1,2]imidazo[4,5-c]quinolin-6-amine]
134 to 137 °C | Nc1nc2ccccc2c2c1nc1n2[C@@H](COCc2ccc(F)cc2)COC1 [Example 45, (11S)-11-{[(4-Fluorobenzyl)oxy]methyl}-10,11-dihydro-8H-[1,4]oxazino[4′,3′:1,2]imidazo[4,5-c]quinolin-6-amine]
170 to 172 °C | Nc1nc2ccccc2c2c1nc1n2[C@@H](Cc2ccc(F)cc2)COC1 [Example 46, (11S)-11-(4-Fluorobenzyl)-10,11-dihydro-8H-[1,4]oxazino[4′,3′:1,2]imidazo[4,5-c]quinolin-6-amine]
261 to 262 °C | Nc1nc2ccccc2c2c1nc1n2[C@@H](c2cc(-c3ccc(F)cc3)no2)COC1 [Example 50, (11R)-11-[3-(4-Fluorophenyl)isoxazol-5-yl]-10,11-dihydro-8H-[1,4]oxazino[4′,3′:1,2]imidazo[4,5-c]quinolin-6-amine]
184 to 186 °C | C#CCOc1ccc2nc(N)c3nc4n(c3c2c1)[C@@H](C)COC4 [Example 51, (11S)-11-Methyl-2-(prop-2-ynyloxy)-10,11-dihydro-8H-[1,4]oxazino[4′,3′:1,2]imidazo[4,5-c]quinolin-6-amine]
218 to 219 °C | C[C@H]1COCc2nc3c(N)nc4ccc(OC(=O)N5CCCC5)cc4c3n21 [Example 53, (11S)-6-Amino-11-methyl-10,11-dihydro-8H-[1,4]oxazino[4′,3′:1,2]imidazo[4,5-c]quinolin-2-ylpyrrolidine-1-carboxylate]
240 to 242 °C | C[C@H]1COCc2nc3c(N)nc4ccc(OCc5cscn5)cc4c3n21 [Example 54, (11S)-11-Methyl-2-(1,3-thiazol-4-ylmethoxy)-10,11-dihydro-8H-[1,4]oxazino[4′,3′:1,2]imidazo[4,5-c]quinolin-6-amine]
226 to 228 °C | C[C@H]1COCc2nc3c(N)nc4ccc(OCC(=O)N5CCOCC5)cc4c3n21 [Example 55, (11S)-11-Methyl-2-(2-morpholin-4-yl-2-oxoethoxy)-10,11-dihydro-8H-[1,4]oxazino[4′,3′:1,2]imidazo[4,5-c]quinolin-6-amine]
186 to 188 °C | C[C@H]1COCc2nc3c(N)nc4ccc(OCCN5CCOCC5)cc4c3n21 [Example 56, (11S)-11-Methyl-2-(2-morpholin-4-ylethoxy)-10,11-dihydro-8H-[1,4]oxazino[4′,3′:1,2]imidazo[4,5-c]quinolin-6-amine]
205 to 206 °C | C[C@H]1COCc2nc3c(N)nc4cc(CCS(C)(=O)=O)ccc4c3n21 [Example 61, (11S)-11-Methyl-3-[2-(methylsulfonyl)ethyl]-10,11-dihydro-8H-[1,4]oxazino[4′,3′:1,2]imidazo[4,5-c]quinolin-6-amine]
> 250 °C | C[C@H]1COCc2nc3c(N)nc4cc(/C=C/C(=O)N5CCOCC5)ccc4c3n21 [Example 62, (11S)-11-Methyl-3-[(1E)-3-morpholin-4-yl-3-oxoprop-1-enyl]-10,11-dihydro-8H-[1,4]oxazino[4′,3′:1,2]imidazo[4,5-c]quinolin-6-amine]
235 to 237 °C | C[C@H]1COCc2nc3c(N)nc4cc(CCC(=O)N(C)C)ccc4c3n21 [Example 64, 3-[(11S)-6-Amino-11-methyl-10,11-dihydro-8H-[1,4]oxazino[4′,3′:1,2]imidazo[4,5-c]quinolin-3-yl]-N,N-dimethylpropanamide]

The next lines start with the compound.

SMILES | melting point
c1ccc2c(c1)ncc1nc3n(c12)[C@@H](C1CCOCC1)COC3 [Example 42, (11S)-11-Tetrahydro-2H-pyran-4-yl-10,11-dihydro-8H-[1,4]oxazino[4′,3′:1,2]imidazo[4,5-c]quinoline] | 234 to 237 °C
Cc1nc(N)c2nc3n(c2c1C)[C@@H](C)COC3 [Example 44, (4S)-4,6,7-Trimethyl-3,4-dihydro-1H-pyrido[3′,4′:4,5]imidazo[2,1-c][1,4]oxazin-9-amine] | 264 to 267 °C
Nc1nc2ccccc2c2c1nc1n2[C@@H](C2CCCCC2)COC1 [Example 47, (11S)-11-Cyclohexyl-10,11-dihydro-8H-[1,4]oxazino[4′,3′:1,2]imidazo[4,5-c]quinolin-6-amine] | 228 to 230 °C
COc1ccc(C[C@H]2COCc3nc4c(N)nc5ccccc5c4n32)cc1 [Example 49, (11S)-11-(4-Methoxybenzyl)-10,11-dihydro-8H-[1,4]oxazino[4′,3′:1,2]imidazo[4,5-c]quinolin-6-amine] | 115 to 130 °C
Cc1nc(COc2ccc3nc(N)c4nc5n(c4c3c2)[C@@H](C)COC5)cs1 [Example 52, (11S)-11-Methyl-2-[(2-methyl-1,3-thiazol-4-yl)methoxy]-10,11-dihydro-8H-[1,4]oxazino[4′,3′:1,2]imidazo[4,5-c]quinolin-6-amine] | 105 to 107 °C
CCOc1ccc2nc(N)c3nc4n(c3c2c1)[C@@H](C)COC4 [Example 57, (11S)-2-Ethoxy-11-methyl-10,11-dihydro-8H-[1,4]oxazino[4′,3′:1,2]imidazo[4,5-c]quinolin-6-amine] | 187 to 188 °C
CC(C)[C@H]1COCc2nc3c(N)nc4cc(OCC(=O)N5CCOCC5)ccc4c3n21 [Example 58, (11S)-11-Isopropyl-3-(2-morpholin-4-yl-2-oxoethoxy)-10,11-dihydro-8H-[1,4]oxazino[4′,3′:1,2]imidazo[4,5-c]quinolin-6-amine] | 137 to 139 °C
CC(C)[C@H]1COCc2nc3c(N)nc4cc(OCCN5CCOCC5)ccc4c3n21 [Example 59, (11S)-11-Isopropyl-3-(2-morpholin-4-ylethoxy)-10,11-dihydro-8H-[1,4]oxazino[4′,3′:1,2]imidazo[4,5-c]quinolin-6-amine] | 194 to 195 °C
C[C@H]1COCc2nc3c(N)nc4cc(CCC(=O)N5CCOCC5)ccc4c3n21 [Example 63, (11S)-11-Methyl-3-(3-morpholin-4-yl-3-oxopropyl)-10,11-dihydro-8H-[1,4]oxazino[4′,3′:1,2]imidazo[4,5-c]quinolin-6-amine] | 245 to 247 °C
